According to paper PMC11995724, “Antibiotic target discovery by integrated phenotypic and activity-based profiling of electrophilic fragments” (Cell chemical biology, 2025):

Assay: in vitro
Conditions: human, hek293t cells

| Compound | viability at 48 h, 25 µM |
| --- | --- |
| N#CC(=Cc1ccccc1OC(F)F)C(=O)Nc1ccccc1Cl [9-M21, N-(2-chlorophenyl)-2-cyano-3-[2-(difluoromethoxy)phenyl]prop-2-enamide] | 119% |
| N#CC(=Cc1cccs1)C(=O)Nc1cccc2ccccc12 [9-M22, 2-cyano-N-(naphthalen-1-yl)-3-(thiophen-2-yl)prop-2-enamide] | 100% |
| Cc1ccoc1C=C(C#N)C(=O)NCCc1ccccc1 [9-N03, 2-cyano-3-(3-methylfuran-2-yl)-N-(2-phenylethyl)prop-2-enamide] | 93.9% |
| CC(NC(=O)C(C#N)=Cc1cccc(Cl)c1Cl)c1ccccc1 (stereo not drawn) [9-N04, 2-cyano-3-(2,3-dichlorophenyl)-N-(1-phenylethyl)prop-2-enamide] | 3.94% |
| N#CC(=Cc1ccc(Cl)c([N+](=O)[O-])c1)C(=O)N1CCCC1 [9-N05, 3-(4-chloro-3-nitrophenyl)-2-(pyrrolidine-1-carbonyl)prop-2-enenitrile] | 5.4% |
| N#CC(C(=O)NC1CCCCC1)=C1N=C(N)c2ccccc21 [9-N06, 2-(3-amino-1H-isoindol-1-ylidene)-2-cyano-N-cyclohexylacetamide] | 80.2% |
| Cc1cc(C=C(C#N)C(=O)Nc2cn[nH]c2)c(C)n1-c1ccc(F)cc1 [9-N07, 2-cyano-3-[1-(4-fluorophenyl)-2,5-dimethyl-1H-pyrrol-3-yl]-N-(1H-pyrazol-4-yl)prop-2-enamide] | 95.1% |
| N#CC(=Cc1c[nH]c2ccccc12)C(=O)Nc1cccc2ncccc12 [9-N08, 2-cyano-3-(1H-indol-3-yl)-N-(quinolin-5-yl)prop-2-enamide] | 101% |
| Cc1cc(CNC(=O)C(C#N)=Cc2ccco2)ccc1N(C)C [9-N09, 2-cyano-N-{[4-(dimethylamino)-3-methylphenyl]methyl}-3-(furan-2-yl)prop-2-enamide] | 113% |
| N#CC(=Cc1ccc(O)cc1)C(=O)NCc1ccco1 [9-N10, 2-cyano-N-[(furan-2-yl)methyl]-3-(4-hydroxyphenyl)prop-2-enamide] | 103% |
| N#CC(=Cc1ccc2ccccc2c1)C(=O)NCc1ccccc1 [9-N11, N-benzyl-2-cyano-3-(naphthalen-2-yl)prop-2-enamide] | 123% |
| COc1cc(C=C(C#N)C(=O)NC(C)C)sn1 [9-N12, 2-cyano-3-(3-methoxy-1,2-thiazol-5-yl)-N-(propan-2-yl)prop-2-enamide] | 115% |
| Cc1ccc(C)c(C=C(C#N)C(=O)Nc2nccs2)c1 [9-N13, 2-cyano-3-(2,5-dimethylphenyl)-N-(1,3-thiazol-2-yl)prop-2-enamide] | 126% |
| CCCNC(=O)C(C#N)=Cc1cnc2c(C)cccn12 [9-N14, 2-cyano-3-{8-methylimidazo[1,2-a]pyridin-3-yl}-N-propylprop-2-enamide] | 120% |
| Cc1c(C=C(C#N)C(=O)Nc2cnc3ccccc3c2)cc(C#N)n1C [9-N15, 2-cyano-3-(5-cyano-1,2-dimethyl-1H-pyrrol-3-yl)-N-(quinolin-3-yl)prop-2-enamide] | 111% |
| COc1ccc(-n2c(C)cc(C=C(C#N)C(=O)N(C)OC)c2C)cc1 [9-N16, 2-cyano-N-methoxy-3-[1-(4-methoxyphenyl)-2,5-dimethyl-1H-pyrrol-3-yl]-N-methylprop-2-enamide] | 88.4% |
| N#CC(=Cc1cccc(F)c1)C(=O)Nc1ccc(SC(F)F)cc1 [9-N17, 2-cyano-N-{4-[(difluoromethyl)sulfanyl]phenyl}-3-(3-fluorophenyl)prop-2-enamide] | 103% |
| N#CC(=Cc1csc(-c2ccsc2)n1)C(=O)NC1CC1 [9-N18, 2-cyano-N-cyclopropyl-3-[2-(thiophen-3-yl)-1,3-thiazol-4-yl]prop-2-enamide] | 110% |
| Cc1cn2c(C=C(C#N)C(=O)Nc3c(C)cccc3C)c(C)nc2s1 [9-N19, 2-cyano-3-{2,6-dimethylimidazo[2,1-b][1,3]thiazol-5-yl}-N-(2,6-dimethylphenyl)prop-2-enamide] | 94.4% |
| CC(C)Oc1ccccc1C=C(C#N)C(=O)Nc1ccccc1Cl [9-N20, N-(2-chlorophenyl)-2-cyano-3-[2-(propan-2-yloxy)phenyl]prop-2-enamide] | 104% |
| Cc1ccc(C=C(C#N)C(=O)Nc2c(Cl)cccc2Cl)o1 [9-N21, 2-cyano-N-(2,6-dichlorophenyl)-3-(5-methylfuran-2-yl)prop-2-enamide] | 108% |
| N#C/C(C(=O)Nc1ccc(C(F)(F)F)cc1)=C(/O)C1CC1 [9-N22, (2Z)-2-cyano-3-cyclopropyl-3-hydroxy-N-[4-(trifluoromethyl)phenyl]prop-2-enamide] | 82.6% |
| N#CC(=Cc1cccc2ccccc12)C(=O)NC1CC1 [9-O03, 2-cyano-N-cyclopropyl-3-(naphthalen-1-yl)prop-2-enamide] | 116% |
| CN(C)c1ccc(C=C(C#N)C(N)=O)cc1 [9-O04, 2-cyano-3-[4-(dimethylamino)phenyl]prop-2-enamide] | 118% |

| Compound | viability at 48 h, 25 µM |
| --- | --- |
| N#CC(=Cc1ccsc1)C(=O)Nc1ccccc1Cl [9-O05, N-(2-chlorophenyl)-2-cyano-3-(thiophen-3-yl)prop-2-enamide] | 150% |
| CCNC(=O)C(C#N)=Cc1c(N2CCOCC2)nc2ccccn2c1=O [9-O06, 2-cyano-N-ethyl-3-[2-(morpholin-4-yl)-4-oxo-4H-pyrido[1,2-a]pyrimidin-3-yl]prop-2-enamide] | 137% |
| CCCCNC(=O)C(C#N)=Cc1ccc(Cl)cc1Cl [9-O07, N-butyl-2-cyano-3-(2,4-dichlorophenyl)prop-2-enamide] | 69% |
| N#CC(=Cc1cc2ccccc2o1)C(=O)NCc1ccco1 [9-O08, 3-(1-benzofuran-2-yl)-2-cyano-N-[(furan-2-yl)methyl]prop-2-enamide] | 114% |
| CCCCNC(=O)C(C#N)=Cc1c(Cl)nc2ccccn12 [9-O09, N-butyl-3-{2-chloroimidazo[1,2-a]pyridin-3-yl}-2-cyanoprop-2-enamide] | 129% |
| N#CC(=Cc1ccc(N2CCOCC2)cc1)C(=O)NCC1CCCO1 (stereo not drawn) [9-O10, 2-cyano-3-[4-(morpholin-4-yl)phenyl]-N-[(oxolan-2-yl)methyl]prop-2-enamide] | 120% |
| Cc1ccc(C=C(C#N)C(=O)NC(C)C)s1 [9-O11, 2-cyano-3-(5-methylthiophen-2-yl)-N-(propan-2-yl)prop-2-enamide] | 139% |
| COc1ccc(C=C(C#N)C(=O)Nc2ccc(C)cc2)cc1O [9-O12, 2-cyano-3-(3-hydroxy-4-methoxyphenyl)-N-(4-methylphenyl)prop-2-enamide] | 109% |
| CC1=C(C#N)C(=O)N(C2CCS(=O)(=O)C2)C(=O)C1=Cc1ccco1 (stereo not drawn) [9-O13, 1-(1,1-dioxo-1lambda6-thiolan-3-yl)-5-[(furan-2-yl)methylidene]-4-methyl-2,6-dioxo-1,2,5,6-tetrahydropyridine-3-carbonitrile] | 99% |
| N#CC(=Cc1cnn(Cc2ccccc2)c1)C(=O)NC1CCCC1 [9-O14, 3-(1-benzyl-1H-pyrazol-4-yl)-2-cyano-N-cyclopentylprop-2-enamide] | 80.2% |
| CCc1cccc(CC)c1NC(=O)C(C#N)=Cc1ccc(C#N)cc1 [9-O15, 2-cyano-3-(4-cyanophenyl)-N-(2,6-diethylphenyl)prop-2-enamide] | 36.5% |
| N#CC(=Cc1cccc(O)c1)C(=O)Nc1ccccc1C(=O)O [9-O16, 2-[2-cyano-3-(3-hydroxyphenyl)prop-2-enamido]benzoic acid] | 125% |
| N#CC(=Cc1ccc(C#N)cc1)C(=O)Nc1ccccc1Cl [9-O17, N-(2-chlorophenyl)-2-cyano-3-(4-cyanophenyl)prop-2-enamide] | 131% |
| Cc1cccc(NC(=O)C(C#N)=Cc2cnc3ccc(C#N)cn23)c1 [9-O18, 2-cyano-3-{6-cyanoimidazo[1,2-a]pyridin-3-yl}-N-(3-methylphenyl)prop-2-enamide] | 132% |
| COc1cc(C=C(C#N)C(=O)NC2CC2)cc(OC)c1O [9-O19, 2-cyano-N-cyclopropyl-3-(4-hydroxy-3,5-dimethoxyphenyl)prop-2-enamide] | 124% |
| N#CC(=Cc1ccccc1[N+](=O)[O-])C(=O)Nc1ccc2c(c1)OCCO2 [9-O20, 2-cyano-N-(2,3-dihydro-1,4-benzodioxin-6-yl)-3-(2-nitrophenyl)prop-2-enamide] | 108% |
| Cc1ccc(-n2c(C)cc(C=C(C#N)C(=O)N3CCCCC3)c2C)cc1 [9-O21, 3-[2,5-dimethyl-1-(4-methylphenyl)-1H-pyrrol-3-yl]-2-(piperidine-1-carbonyl)prop-2-enenitrile] | 87.8% |
| Cc1ccc(C)c(C=C(C#N)C(=O)NC(C)C)c1 [9-O22, 2-cyano-3-(2,5-dimethylphenyl)-N-(propan-2-yl)prop-2-enamide] | 125% |
| N#CC(=Cc1cccc(F)c1)C(=O)Nc1cc(Cl)ccc1Cl [9-P03, 2-cyano-N-(2,5-dichlorophenyl)-3-(3-fluorophenyl)prop-2-enamide] | 109% |
| Cc1cc(C=C(C#N)C(=O)N2CC[C@H](O)C2)c(C)n1CC1CCCO1 (stereo partly drawn) [9-P04, 3-{2,5-dimethyl-1-[(oxolan-2-yl)methyl]-1H-pyrrol-3-yl}-2-[(3S)-3-hydroxypyrrolidine-1-carbonyl]prop-2-enenitrile] | 131% |
| CCOc1ccccc1NC(=O)C(C#N)=Cc1ccc2c(c1)OCO2 [9-P05, 3-(1,3-dioxaindan-5-yl)-2-cyano-N-(2-ethoxyphenyl)prop-2-enamide] | 136% |
| N#CC(=Cc1c(F)cccc1Cl)C(=O)Nc1ccc(C(=O)O)cc1 [9-P06, 4-[3-(2-chloro-6-fluorophenyl)-2-cyanoprop-2-enamido]benzoic acid] | 142% |
| C=CCNC(=O)C(C#N)=Cc1sccc1C [9-P07, 2-cyano-3-(3-methylthiophen-2-yl)-N-(prop-2-en-1-yl)prop-2-enamide] | 117% |
| COc1cc(C=C(C#N)C(=O)Nc2ccccn2)ccc1O [9-P08, 2-cyano-3-(4-hydroxy-3-methoxyphenyl)-N-(pyridin-2-yl)prop-2-enamide] | 124% |
